Data published in patent US10399970B2, “Pyrridinobenzodiazepine and benzopyrridodiazecine compounds” (FEMTOGENIX LIMITED, priority 2015, dated 2019).

Tests used:
[1] = tested on: MDA MB231 (triple negative human breast cancer); test: Cytotoxicity analysis by MTT assay; assay type: cell-based; details: MDA-MB-231, 96 hours exposure, read-out: IC50 (nanomolar) MDA MB 231 (Triple negative breast cancer cell line)
Experimental: MDA MB231 (triple negative human breast cancer) was obtained from the American Type Culture Collection. The cell-line was maintained in monolayer culture in 75 cm^2 flasks (TPP, Switzerland) under a humidified 5% CO2 atmosphere at 37° C. The MDA MB231 cell line was maintained in high glucose DMEM (4.5 g\l; Invitrogen), foetal bovine serum (10%, Biosera UK), non-essential amino acids (ix; Invitrogen), L-glutamine (2 mM; Invitrogen) and Penicillin-Streptomycin (1% v/v, Invitrogen). For passaging, cells were washed with PBS (GIBCO 14040, Invitrogen, UK), incubated with trypsine (GIBCO 25300, Invitrogen, UK), and re-seeded into fresh medium. For seeding, cells were counted using a Neubauer haemocytometer (Assistant, Germany) by microscopy (Nikon, USA) on a non-adherent suspension of cells that were washed in PBS, trypsinised, centrifuged at 8° C. at 8000 rpm for 5 min and re-suspended in fresh medium.
The cells were grown in normal cell culture conditions at 37° C. under a 5% CO2 humidified atmosphere using appropriate medium. […] After 96 h of continuous exposure to each compound, the cytotoxicity was determined using the 3-(4,5-Dimethylthiazol-2-yl)-2,5-diphenyltetrazolium bromide (MTT) (Lancaster Synthesis Ltd, UK) colorimetric assay. Absorbance was quantified by spectrophotometry at X=570 nm (Envision Plate Reader, PerkinElmer, USA). […]

cancer cell lines = details: some cancer cell lines; cited from earlier work
[2] = Phase I clinical evaluation; cited from earlier work

`COC(=O)c1cc2cc(NC(=O)c3cc(NC(=O)CO[C@@H]4CCN5C(=O)c6cc(OC)c(OC)cc6N=C[C@@H]5C4)cn3C)ccc2s1` [Compound 23, Methyl 5-(4-(2-(((6aS,8R)-2,3-dimethoxy-12-oxo-6a,7,8,9,10,12-hexahydrobenzo[e]pyrido[1,2-a][1,4]diazepin-8-yl)oxy)acetamido)-1-methyl-1H-pyrrole-2-carboxamido)benzo[b]thiophene-2-carboxylate] gave an IC50 [1] of 221 nM.

In the case of `COC(=O)c1cc(-c2ccc(NC(=O)c3nc(NC(=O)CCCOc4cc5c(cc4OC)C(=O)N4CCC[C@H]4C=N5)cn3C)cc2)cn1C`, the cytotoxic activity range (cancer cell lines) is listed as “femtomolar range”.

For `C=C1C[C@H]2C=Nc3cc(OCCCOc4cc5c(cc4OC)C(=O)N4CC(=C)C[C@H]4C=N5)c(OC)cc3C(=O)N2C1`, the adverse effects [2] is listed as “lower-limb edema and fatigue”.
